Experiment [1] concerns the target GDP-bound NRAS wild-type protein (Homo sapiens, UniProt P01111). In words: Binding to NRAS by surface plasmon resonance (SPR), Single Cycle Kinetics. As to conditions: KD ratio, GDP-bound NRAS wild-type vs GDP-bound KRAS wild-type, SPR.
In experiment [2] the target is GDP-bound HRAS wild-type protein (Homo sapiens, UniProt P01112). In words: Binding to HRAS by surface plasmon resonance (SPR), Single Cycle Kinetics. As to conditions: KD ratio, GDP-bound HRAS wild-type vs GDP-bound KRAS wild-type, SPR.
Sequence of GDP-bound HRAS wild-type protein (P01112 whole entry): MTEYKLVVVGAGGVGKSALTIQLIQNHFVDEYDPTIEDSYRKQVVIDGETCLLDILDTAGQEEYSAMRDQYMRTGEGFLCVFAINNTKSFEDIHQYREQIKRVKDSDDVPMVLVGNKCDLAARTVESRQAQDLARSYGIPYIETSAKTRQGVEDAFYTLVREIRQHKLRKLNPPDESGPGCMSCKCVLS

*1 amine or outer side, *2 acyl side, *3 side chain or, on linkers, in order; H or OH if unused. Where a SMILES comes first, the peptide text is derived from it. Bridges are numbered along the chain shown (N, C = ends). [ ]: non-standard residue; d: D form. The star is where a group is joined. hPhe(3-Cl-4-CF3) = N[C@@H](CCc1ccc(C(F)(F)F)c(Cl)c1)C(=O)O; NPrPhe(4-CF3) = CCCN[C@@H](Cc1ccc(C(F)(F)F)cc1)C(=O)O; X22 = CCCN([C@@H](COC1CCC1)C(=O)[*:2])[*:1]; X4 = CCCN([C@@H](COCCC(C)C)C(=O)[*:2])[*:1]; X33 = CCCN([C@@H](CC(C)C)C(=O)[*:2])[*:1]; NMeGly(cPent) = CN[C@H](C(=O)O)C1CCCC1; NMeD = CN[C@@H](CC(=O)O)C(=O)O; NMeL = CN[C@@H](CC(C)C)C(=O)O; Morpholide = C1CN(*)CCO1; NMeA = CN[C@@H](C)C(=O)O; Aze = O=C(O)[C@@H]1CCN1; Ac4c = NC1(C(=O)O)CCC1; Sar = CNCC(=O)O

Sequence of GDP-bound NRAS wild-type protein (P01111 whole entry): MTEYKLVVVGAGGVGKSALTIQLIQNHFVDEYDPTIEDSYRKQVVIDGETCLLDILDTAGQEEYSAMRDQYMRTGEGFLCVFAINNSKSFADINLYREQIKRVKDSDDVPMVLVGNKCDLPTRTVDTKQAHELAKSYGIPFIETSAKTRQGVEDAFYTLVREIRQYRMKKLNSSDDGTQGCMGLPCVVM

On to `CC[C@H](C)[C@@H]1NC(=O)[C@H](CC)N(C)C(=O)C[C@@H](C(=O)N(C)C)N(C)C(=O)[C@H](C2CCCC2)N(C)C(=O)C2(CCCC2)N(C)C(=O)[C@@H]2C[C@@H](C)CN2C(=O)[C@H](CCc2cc(F)c(C(F)(F)F)c(F)c2)NC(=O)CN(C)C(=O)[C@H](Cc2ccc(C)cc2)N2CC/C=C\C[C@@H](C2=O)N(C)C(=O)[C@@H]2CCCN2C1=O` [PP1814], for which the “NRAS/KRAS (ratio of KD value for NRAS to KD value for KRAS)” value in experiment [1] was “A (a compound having 10 or more and less than 20 is denoted as A)”. For the same compound, the “HRAS/KRAS (ratio of KD value for HRAS to KD value for KRAS)” value in experiment [2] is “A (a compound having 10 or more and less than 20 is denoted as A)”.

Turning to `CCCN1C(=O)C[C@@H](C(=O)N2CCOCC2)N(C)C(=O)[C@H](C2CCCC2)N(C)C(=O)C2(CCC2)NC(=O)[C@@H]2CCCN2C(=O)[C@H](CCc2ccc(C(F)(F)F)c(Cl)c2)NC(=O)CN(C)C(=O)[C@H](Cc2ccc(C(F)(F)F)cc2)N(CCC)C(=O)CN(C)C(=O)CN(C)C(=O)[C@H](C(C)C)NC(=O)[C@@H]1CC(C)C` [PP1815] ([X33]V[Sar][Sar][NPrPhe(4-CF3)][Sar][hPhe(3-Cl-4-CF3)]P[Ac4c][NMeGly(cPent)][NMeD]-Morpholide; lactam N-11), in experiment [1], the “NRAS/KRAS (ratio of KD value for NRAS to KD value for KRAS)” value was “B (a compound having 3 or more and less than 10 is denoted as B)”. Besides, the “HRAS/KRAS (ratio of KD value for HRAS to KD value for KRAS)” value in experiment [2] was “B (a compound having 3 or more and less than 10 is denoted as B)”.

On to `CCCN1C(=O)CN(C)C(=O)CN(C)C(=O)[C@H]([C@@H](C)CC)NC(=O)[C@H](CC(C)C)N(C)C(=O)C[C@@H](C(=O)N2CCOCC2)N(C)C(=O)[C@H](C2CCCC2)N(C)C(=O)C2(CCC2)NC(=O)[C@@H]2CCCN2C(=O)[C@H](CCc2ccc(C(F)(F)F)c(Cl)c2)NC(=O)CN(C)C(=O)[C@@H]1COC1CCC1` [PP1816] ([NMeL]I[Sar][Sar][X22][Sar][hPhe(3-Cl-4-CF3)]P[Ac4c][NMeGly(cPent)][NMeD]-Morpholide; lactam N-11), for which the “NRAS/KRAS (ratio of KD value for NRAS to KD value for KRAS)” value in experiment [1] was “B (a compound having 3 or more and less than 10 is denoted as B)”. The “HRAS/KRAS (ratio of KD value for HRAS to KD value for KRAS)” value in experiment [2] is “C (A compound having a KD ratio of 0.1 or more and less than 3 is denoted as C)”.

Regarding `CCCN1C(=O)CN(C)C(=O)CN(C)C(=O)[C@H]([C@@H](C)CC)NC(=O)[C@H](CC(C)C)N(C)C(=O)C[C@@H](C(=O)N2CCOCC2)N(C)C(=O)[C@H](C2CCCC2)N(C)C(=O)C2(CCC2)NC(=O)[C@@H]2CCCN2C(=O)[C@H](CCc2ccc(C(F)(F)F)c(Cl)c2)NC(=O)CN(C)C(=O)[C@@H]1COCCC(C)C` [PP1817] ([NMeL]I[Sar][Sar][X4][Sar][hPhe(3-Cl-4-CF3)]P[Ac4c][NMeGly(cPent)][NMeD]-Morpholide; lactam N-11), in experiment [1], the “NRAS/KRAS (ratio of KD value for NRAS to KD value for KRAS)” value was “C (A compound having a KD ratio of 0.1 or more and less than 3 is denoted as C)”. Moreover, the “HRAS/KRAS (ratio of KD value for HRAS to KD value for KRAS)” value in experiment [2] was “C (A compound having a KD ratio of 0.1 or more and less than 3 is denoted as C)”.

`CCCN1C(=O)[C@@H]2CCN2C(=O)[C@H](C)N(C)C(=O)[C@H]([C@@H](C)CC)NC(=O)[C@H](CC(C)C)N(C)C(=O)C[C@@H](C(=O)N2CCOCC2)N(C)C(=O)[C@H](C2CCCC2)N(C)C(=O)C2(CCC2)NC(=O)[C@@H]2CCCN2C(=O)[C@H](CCc2ccc(C(F)(F)F)c(Cl)c2)NC(=O)CN(C)C(=O)[C@@H]1COC1CCC1` [PP1818] ([NMeL]I[NMeA][Aze][X22][Sar][hPhe(3-Cl-4-CF3)]P[Ac4c][NMeGly(cPent)][NMeD]-Morpholide; lactam N-11): the “NRAS/KRAS (ratio of KD value for NRAS to KD value for KRAS)” value in experiment [1] was “C (A compound having a KD ratio of 0.1 or more and less than 3 is denoted as C)”. For the same compound, the “HRAS/KRAS (ratio of KD value for HRAS to KD value for KRAS)” value in experiment [2] is “B (a compound having 3 or more and less than 10 is denoted as B)”.

As for `CCCN1C(=O)[C@@H]2CCN2C(=O)[C@H](C)N(C)C(=O)[C@H]([C@@H](C)CC)NC(=O)[C@H](CC(C)C)N(C)C(=O)C[C@@H](C(=O)N2CCOCC2)N(C)C(=O)[C@H](C2CCCC2)N(C)C(=O)C2(CCC2)NC(=O)[C@@H]2CCCN2C(=O)[C@H](CCc2ccc(C(F)(F)F)c(Cl)c2)NC(=O)CN(C)C(=O)[C@@H]1COCCC(C)C` [PP1819] ([NMeL]I[NMeA][Aze][X4][Sar][hPhe(3-Cl-4-CF3)]P[Ac4c][NMeGly(cPent)][NMeD]-Morpholide; lactam N-11), the “NRAS/KRAS (ratio of KD value for NRAS to KD value for KRAS)” value in experiment [1] was “C (A compound having a KD ratio of 0.1 or more and less than 3 is denoted as C)”. Moreover, the “HRAS/KRAS (ratio of KD value for HRAS to KD value for KRAS)” value in experiment [2] is “C (A compound having a KD ratio of 0.1 or more and less than 3 is denoted as C)”.

Turning to `CCO[C@@H]1C[C@H]2C(=O)NC3(CCC3)C(=O)N(C)[C@@H](C3CCCC3)C(=O)N(C)[C@H](C(=O)N(C)C)CC(=O)N(C)[C@@H](CC)C(=O)N[C@@H]([C@@H](C)CC)C(=O)N(C)CC(=O)N(C)[C@H]3C/C=C\CCN(C3=O)[C@@H](Cc3ccc(C(F)(F)F)cc3)C(=O)N(C)CC(=O)N[C@@H](CCc3cc(C)c(Cl)c(C)c3)C(=O)N2C1` [PP1821], the “NRAS/KRAS (ratio of KD value for NRAS to KD value for KRAS)” value in experiment [1] is “A (a compound having 10 or more and less than 20 is denoted as A)”. Besides, the “HRAS/KRAS (ratio of KD value for HRAS to KD value for KRAS)” value in experiment [2] is “A (a compound having 10 or more and less than 20 is denoted as A)”.

In the case of `CC[C@H](C)[C@@H]1NC(=O)[C@H](CC)N(C)C(=O)C[C@@H](C(=O)N(C)C)N(C)C(=O)[C@H](C2CCCC2)N(C)C(=O)C2(CCC2)NC(=O)[C@@H]2CCCN2C(=O)[C@H](CCc2cc(C)c(Cl)c(C)c2)NC(=O)CN(C)C(=O)[C@H](Cc2ccc(C(F)(F)F)cc2)N2CC/C=C\C[C@@H](C2=O)N(C)C(=O)CN(C)C1=O` [PP1822], the “NRAS/KRAS (ratio of KD value for NRAS to KD value for KRAS)” value in experiment [1] is “A (a compound having 10 or more and less than 20 is denoted as A)”. In addition, in experiment [2], the “HRAS/KRAS (ratio of KD value for HRAS to KD value for KRAS)” value was “B (a compound having 3 or more and less than 10 is denoted as B)”.

Regarding `CCO[C@@H]1C[C@H]2C(=O)NC3(CCCC3)C(=O)N(C)[C@@H](C3CCCC3)C(=O)N(C)[C@H](C(=O)N(C)C)CC(=O)N(C)[C@@H](CC)C(=O)N[C@@H]([C@@H](C)CC)C(=O)N(C)CC(=O)N(C)[C@H]3C/C=C\CCN(C3=O)[C@@H](Cc3ccc(C(F)(F)F)cc3)C(=O)N(C)CC(=O)N[C@@H](CCc3cc(C)c(Cl)c(C)c3)C(=O)N2C1` [PP1823], in experiment [1], the “NRAS/KRAS (ratio of KD value for NRAS to KD value for KRAS)” value is “A (a compound having 10 or more and less than 20 is denoted as A)”. In addition, the “HRAS/KRAS (ratio of KD value for HRAS to KD value for KRAS)” value in experiment [2] was “A (a compound having 10 or more and less than 20 is denoted as A)”.

For the compound `CCCN1C(=O)C[C@@H](C(=O)N(C)C)N(C)C(=O)[C@H](C2CCCC2)N(C)C(=O)C2(CCC2)NC(=O)[C@@H]2C[C@@H](OCC)CN2C(=O)[C@H](CCc2cc(F)c(C(F)(F)F)c(F)c2)NC(=O)CN(C)C(=O)[C@H](Cc2ccc(C(F)(F)F)cc2)N2CC/C=C\C[C@@H](C2=O)N(C)C(=O)CN(C)C(=O)[C@H]([C@@H](C)CC)NC(=O)[C@@H]1CC(C)C` [PP1825], the “NRAS/KRAS (ratio of KD value for NRAS to KD value for KRAS)” value in experiment [1] was “A (a compound having 10 or more and less than 20 is denoted as A)”. In experiment [2], the “HRAS/KRAS (ratio of KD value for HRAS to KD value for KRAS)” value is “A (a compound having 10 or more and less than 20 is denoted as A)”.

Turning to `CCCN1C(=O)C[C@@H](C(=O)N(C)C)N(C)C(=O)[C@H](C2CCCC2)N(C)C(=O)C2(CCC2)NC(=O)[C@@H]2C[C@@H](OCC)CN2C(=O)[C@H](CCc2cc(F)c(C(F)(F)F)c(F)c2)NC(=O)CN(C)C(=O)[C@H](Cc2ccc(C(F)(F)F)cc2)N2CC/C=C\C[C@@H](C2=O)N(C)C(=O)CNC(=O)[C@H]([C@@H](C)CC)NC(=O)[C@@H]1CC(C)C` [PP1826], in experiment [1], the “NRAS/KRAS (ratio of KD value for NRAS to KD value for KRAS)” value was “A (a compound having 10 or more and less than 20 is denoted as A)”. Also, the “HRAS/KRAS (ratio of KD value for HRAS to KD value for KRAS)” value in experiment [2] is “A (a compound having 10 or more and less than 20 is denoted as A)”.

As for `CCO[C@@H]1C[C@H]2C(=O)NC3(CCC3)C(=O)N(C)[C@@H](C3CCCC3)C(=O)N(C)[C@H](C(=O)N(C)CC)CC(=O)N(C)[C@H]3CCCC/C=C/c4ccc(cc4)C[C@@H](C(=O)N(C)CC(=O)N[C@@H](CCc4cc(F)c(C(F)(F)F)c(F)c4)C(=O)N2C1)N1CC/C=C\C[C@@H](C1=O)N(C)C(=O)CN(C)C(=O)[C@H]([C@@H](C)CC)NC3=O` [PP1827, (1S,7S,11R,13S,19S,22S,26S,29S,35S,37Z,47E)-19-cyclopentyl-7-[2-[3,5-difluoro-4-(trifluoromethyl)phenyl]ethyl]-11-ethoxy-N-ethyl-N,3,18,21,25,31,34-heptamethyl-29-[(1S)-1-methylpropyl]-2,5,8,14,17,20,24,27,30,33,55-undecaoxo-spiro[3,6,9,15,18,21,25,28,31,34,41-undecazapentacyclo[24.15.11.2^43,46.1^35,41.0^9,13]pentapentaconta-37,43(54),44,46(53),47-pentaene-16,1′-cyclobutane]-22-carboxamide], the “NRAS/KRAS (ratio of KD value for NRAS to KD value for KRAS)” value in experiment [1] was “A (a compound having 10 or more and less than 20 is denoted as A)”. Moreover, the “HRAS/KRAS (ratio of KD value for HRAS to KD value for KRAS)” value in experiment [2] was “A (a compound having 10 or more and less than 20 is denoted as A)”.

For `CCO[C@@H]1C[C@H]2C(=O)NC3(CC(C)(C)C3)C(=O)N(C)[C@@H](C3CCCC3)C(=O)N(C)[C@H](C(=O)N(C)CC)CC(=O)N(C)[C@H]3CCCC/C=C/c4ccc(cc4)C[C@@H](C(=O)N(C)CC(=O)N[C@@H](CCc4cc(F)c(C(F)(F)F)c(F)c4)C(=O)N2C1)N1CC/C=C\C[C@@H](C1=O)N(C)C(=O)CN(C)C(=O)[C@H]([C@@H](C)CC)NC3=O` [PP1829], the “NRAS/KRAS (ratio of KD value for NRAS to KD value for KRAS)” value in experiment [1] was “A (a compound having 10 or more and less than 20 is denoted as A)”. The “HRAS/KRAS (ratio of KD value for HRAS to KD value for KRAS)” value in experiment [2] is “B (a compound having 3 or more and less than 10 is denoted as B)”.

(Values after patent publication US20250230193A1, “CYCLIC COMPOUND HAVING SELECTIVE KRAS INHIBITORY EFFECT ON HRAS AND NRAS” (CHUGAI SEIYAKU KABUSHIKI KAISHA, priority 2022, published 2025).)
